For experiment [1], the system named is HDAC (nuclear fraction of Hela cells). Description: Assay of enzyme inhibition of HDAC (BIOMOL Kit). In kind it is biochemical. The following applies: substrate 200 μM, 15 min at RT, fluorescence. On the procedure:
The in-vitro activity of HDAC inhibitors was assayed using a BIOMOL Kit, according to the instructions from the manufacturer (Biomolecular Research Laborator). 15 μl of 30× diluted nuclear fraction of Hela cells, was diluted to 50 μl with the assay buffer containing the HDAC inhibitor and the substrate (lysine with acetylated amino group on the side chain) at a concentration of 200 μM. The samples were incubated for 15 min at RT and then exposed to a developer (10 min at RT). In this last step a fluorophore was produced, whose fluorescence was measured using an excitation wavelength of 355 nm and an emission at 460 nm. The IC50 was calculated using GraphPad Software.

The subject of the next experiment is K562 cells. Description: Cell growth, CellTiter-Glo Luminescent Cell Viability Assay, K562. In kind it is cell-based. The following applies: Homo sapiens, 72 h incubation, read-out: K562 (antiproliferative assay IC50). From the text: (§1) CellTiter-Glo® Luminescent Cell Viability Assay (Promega) is a homogeneous method of determining the number of viable cells in culture based on quantitation of the present ATP, which indicates the presence of metabolically active cells. The homogeneous assay procedure involves addition of a single reagent (CellTiter-Glo® Reagent) directly to the cells, which leads to cell lysis and generation of a luminescent signal proportional to the amount of the ATP and the number of cells present in culture. The assay relies on the properties of a proprietary thermostable luciferase (Ultra-Glo® recombinant luciferase), which generates a luminescent signal.
(§2) K562, A549, and HCT-116 cells, in exponential growth, were incubated for 72 h with different concentrations of the inhibitors. After 72 h, a volume of CellTiter-Glo® Reagent equal to the volume of cell culture medium was added. The content was mixed for 2 min to induce cell lysis. The luminescence was recorded after further 10 min at RT in order to obtain a stable luminescent signal.
(§3) The IC50 was calculated using GraphPad Software.

For the next experiment, the system named is A549 cells. As to the kind of experiment: Cell growth, CellTiter-Glo Luminescent Cell Viability Assay, A549. In kind it is cell-based. The following applies: Homo sapiens, 72 h incubation, read-out: A549 (antiproliferative assay IC50).
Source text: as §1, §2, §3
On the technique in general: Cellular ATP, detected with luciferase, serves as a proxy for viable cell number.

For the next experiment, the system named is HCT-116 cells. As to the kind of experiment: Cell growth, CellTiter-Glo Luminescent Cell Viability Assay, HCT-116. Conditions: Homo sapiens, 72 h incubation, read-out: HCT116 (antiproliferative assay IC50). In kind it is cell-based.
Source text: as §1, §2, §3

Structures are written as SMILES. pIC50: −log10 of the molar value. Where only a bound is given, the exact number is not on record here.

For `O=C(/C=C/c1ccc2c(c1)/C(=N\OCc1ccccc1)CC1(CCCN(CCc3ccccc3)C1)O2)NO` (centres unmarked) [Example 55, (E)-3-(4-(Benzyloxyimino)-1′-phenethylspiro[chroman-2,3′-piperidine]-6-yl)-N-hydroxyacrylamide], the pIC50 (in general, the negative decadic logarithm of the IC50, by convention in mol/L) in experiment [1] is not above 6.00; in the experiment on K562 cells it was not below 6.00; in the experiment on A549 cells, 5.52 to 6.00; in the experiment on HCT-116 cells, not below 6.00. Consider `O=C(/C=C/c1ccc2c(c1)C(=O)NC1(CCCN(CCc3ccccc3)C1)O2)NO` (racemic) [Example 43, (±)-(E)-3-{1′-(2-Phenyl-ethyl)-3,4-dihydro-4-oxo-spiro[2H-(1,3)-benzoxazine-2,3′-piperidin]-6-yl}-N-hydroxy-acrylamide], for which the negative logarithm of the IC50 (pIC50) in experiment [1] was not below 7.00. The compound `O=C(/C=C/c1ccc2c(c1)C(=O)CC1(CCCN(Cc3ccc(F)cc3)C1)O2)NO` (racemic) [Example 19, (±)-(E)-3-[1′(4-Fluoro-benzyl)-4-oxo-spiro(chromane-2,3′-piperidine)-6-yl]-N-hydroxy-acrylamide] gave a pIC50 in experiment [1] not below 7.00. Same read-out and setting: the figure for `O=C(/C=C/c1ccc2c(c1)C(=O)CC1(CN(C(=O)c3ccccc3)C1)O2)NO` [Example 37, (E)-3-[1′-Benzoyl-4-oxo-spiro(chromane-2,3′-azetidine)-6-yl]-N-hydroxy-acrylamide] is not below 7.00; for `O=C(/C=C/c1ccc2c(c1)C(=O)CC1(CCN(Cc3ccccc3)C1)O2)NO` (single isomer, unassigned; (-)) [Example 3, (−)-(E)-3-[1′-Benzyl-4-oxo-spiro(chromane-2,3′-pyrrolidine)-6-yl]-N-hydroxy-acrylamide] it is not below 7.00. On to `O=C(/C=C/c1ccc2c(c1)C(=O)CC1(CCCN(Cc3ccccc3)C1)O2)NO` (single isomer, unassigned; (-)) [Example 17, (−)-(E)-3-[1′-Benzyl-4-oxo-spiro(chromane-2,3′-piperidine)-6-yl]-N-hydroxy-acrylamide], for which the pIC50 in experiment [1] was not below 7.00.

`O=C(/C=C/c1ccc2c(c1)C(=O)CC1(CCCN(Cc3ccccc3)CC1)O2)NO` (racemic) [Example 23, (±)-(E)-3-[1′-Benzyl-4-oxo-spiro(chromane-2,4′-azepane)-6-yl]-N-hydroxy-acrylamide]: the negative-log IC50 (pIC50) in experiment [1] was not below 7.00. Still for that read-out and setting: the figure for `O=C(/C=C/c1ccc2c(c1)C(=O)NC1(CCCN(Cc3ccccc3)C1)O2)NO` (racemic) [Example 40, (±)-(E)-3-{1′-Benzyl-3,4-dihydro-4-oxo-spiro[2H-(1,3)-benzoxazine-2,3′-piperidin]-6-yl}-N-hydroxy-acrylamide] is not below 7.00; for `O=C(/C=C/c1ccc2c(c1)C(=O)CC1(CCCN(CCc3ccccc3)CC1)O2)NO` (racemic) [Example 28, (±)-(E)-3-[1′(2-Phenyl-ethyl)-4-oxo-spiro(chromane-2,4′-azepane)-6-yl]-N-hydroxy-acrylamide] it is not below 7.00. With `Cn1cc(CN2CC3(CC(=O)c4cc(/C=C/C(=O)NO)ccc4O3)C2)c2ccccc21` [Example 44, (E)-3-[1′-(1-Methyl-1H-indol-3-ylmethyl)-4-oxo-spiro(chromane-2,3′-azetidine)-6-yl]-N-hydroxy-acrylamide], the pIC50 in experiment [1] is not below 7.00. The same measure, in the same setting: to `O=C(/C=C/c1ccc2c(c1)C(=O)CC1(CCCN(C3CCCC3)C1)O2)NO` (racemic) [Example 50, (±)-(E)-3-[1′-Cyclopentyl-4-oxo-spiro(chromane-2,3′-piperidine)-6-yl]-N-hydroxy-acrylamide] belongs not below 7.00; to `O=C(/C=C/c1ccc2c(c1)C(=O)CC1(CCCN(Cc3ccccc3)C1)O2)NO` (racemic) [Example 13, (±)-(E)-3-[1′Benzyl-4-oxo-spiro(chromane-2,3′-piperidine)-6-yl]-N-hydroxy-acrylamide], not below 7.00. With `O=C(/C=C/c1ccc2c(c1)C(=O)CC1(CCCN(CCc3ccccc3)C1)O2)NO` (racemic) [Example 20, (±)-(E)-3-[1′-(2-Phenyl-ethyl)-4-oxo-spiro(chromane-2,3′-piperidine)-6-yl]-N-hydroxy-acrylamide], the negative logarithm of the IC50 (pIC50) in experiment [1] was not below 7.00. Same read-out and setting: the figure for `O=C(/C=C/c1ccc2c(c1)C(=O)CC1(CCCN(Cc3ccccc3)C1)O2)NO` (single isomer, unassigned; (+)) [Example 18, (+)-(E)-3-[1′-Benzyl-4-oxo-spiro(chromane-2,3′-piperidine)-6-yl]-N-hydroxy-acrylamide] is 6.00 to 7.00.

On to `O=C(/C=C/c1ccc2c(c1)C(=NO)CC1(CCCN(C3CCCC3)C1)O2)NO` (centres unmarked) [Example 54, (E)-3-(1′-Cyclopentyl-4-(hydroxyimino)spiro[chroman-2,3′-piperidine]-6-yl)-N-hydroxyacrylamide], for which, in experiment [1], the pIC50 was not below 7.00. Regarding `O=C(/C=C/c1ccc2c(c1)C(=O)CC1(CN(Cc3ccccc3)C1)O2)NO` [Example 31, (E)-3-[1′-Benzyl-4-oxo-spiro(chromane-2,3′-azetidine)-6-yl]-N-hydroxy-acrylamide], the pIC50 in experiment [1] was not below 7.00. As for `O=C(/C=C/c1ccc2c(c1)C(=O)CC1(CCN(Cc3ccccc3)C1)O2)NO` (racemic) [Example 2, (±)-(E)-3-[1′-Benzyl-4-oxo-spiro(chromane-2,3′-pyrrolidine)-6-yl]-N-hydroxy-acrylamide], the pIC50 in experiment [1] was not below 7.00.

Take `CO/N=C1/CC2(CCCN(Cc3ccc(F)cc3)C2)Oc2ccc(/C=C/C(=O)NO)cc21` (centres unmarked) [Example 53, (E)-3-(1′-(4-Fluorobenzyl)-4-(methoxyimino)spiro[chroman-2,3′-piperidine]-6-yl)-N-hydroxyacrylamide]: the pIC50 was not above 6.00 in experiment [1], 5.52 to 6.00 in the experiment with K562 cells, not above 5.52 in the experiment with A549 cells and 5.52 to 6.00 in the experiment on HCT-116 cells. `O=C(/C=C/c1ccc2c(c1)C(=O)CC1(CCN(CCc3ccccc3)C1)O2)NO` (racemic) [Example 9, (±)-(E)-3-[1′-(2-Phenyl-ethyl)-4-oxo-spiro(chromane-2,3′-pyrrolidine)-6-yl]-N-hydroxy-acrylamide] had a pIC50 in experiment [1] not below 7.00. In the case of `Cn1cc(CN2CCC3(CC(=O)c4cc(/C=C/C(=O)NO)ccc4O3)C2)c2ccccc21` (racemic) [Example 10, (±)-(E)-3-[1′(1-Methyl-1H-indol-3-ylmethyl)-4-oxo-spiro(chromane-2,3′-pyrrolidine)-6-yl]-N-hydroxy-acrylamide], the pIC50 in experiment [1] is not below 7.00.

These data come from patent US8980877B2, “Spirocyclic derivatives as histone deacetylase inhibitors” (DAC S.R.L., priority 2008, dated 2015).
